Results reported in ChEMBL document CHEMBL4507263, “Data for DCP probe BAY-474” (2021).

Tests used:
[1] = target: Ephrin type-A receptor 4 (Homo sapiens) (UniProt P54764); assay: EphA4 (h) Millipore kinase activity assay; settings: Compound concentration 1.0 uM
[2] = target: SRSF protein kinase 1 (Homo sapiens) (UniProt Q96SB4); assay: SRPK1 (h) Millipore kinase activity assay; settings: Compound concentration 1.0 uM
[3] = target: Testis-specific serine/threonine-protein kinase 2 (Homo sapiens) (UniProt Q96PF2); assay: TSSK2 (h) Millipore kinase activity assay; settings: Compound concentration 1.0 uM
Rattus norvegicus = species on record: Rattus norvegicus; assay: Inhibition of Imidazoline I2, Central at 10 µM in the Eurofins-Panlabs radioligand binding assay (Eurofins_assay_241000); design: ligand concentration 2 nM; settings: Compound concentration 10.0 uM
[4] = target: Mitogen-activated protein kinase 8 (Homo sapiens) (UniProt P45983); assay: JNK1alpha1 (h) Millipore kinase activity assay; settings: Compound concentration 1.0 uM
[5] = target: Activin receptor type-1B (Homo sapiens) (UniProt P36896); assay: ALK4 (h) Millipore kinase activity assay; settings: Compound concentration 1.0 uM
[6] = target: Myosin light chain kinase (Homo sapiens) (UniProt Q32MK0); assay: MLCK (h) Millipore kinase activity assay; settings: Compound concentration 1.0 uM
[7] = target: 5-hydroxytryptamine receptor 2B (Homo sapiens) (UniProt P41595); settings: Compound concentration 10.0 uM
[8] = target: G protein-coupled receptor kinase 5 (Homo sapiens) (UniProt P34947); assay: GRK5 (h) Millipore kinase activity assay; settings: Compound concentration 1.0 uM
[9] = target: Neuropeptide Y receptor type 2 (Homo sapiens) (UniProt P49146); assay: Inhibition of Neuropeptide Y Y2 at 10 µM in the Eurofins-Panlabs radioligand binding assay (Eurofins_assay_257110); settings: Compound concentration 10.0 uM
[10] = target: Ribosomal protein S6 kinase alpha-5 (Homo sapiens) (UniProt O75582); assay: MSK1 (h) Millipore kinase activity assay; settings: Compound concentration 1.0 uM
[11] = target: Protein kinase C iota type (Homo sapiens) (UniProt P41743); assay: PKCiota (h) Millipore kinase activity assay; settings: Compound concentration 1.0 uM
[12] = target: Casein kinase II subunit alpha' (Homo sapiens) (UniProt P19784); assay: CK2alpha2 (h) Millipore kinase activity assay; settings: Compound concentration 1.0 uM
[13] = target: Serine/threonine-protein kinase MRCK alpha (Homo sapiens) (UniProt Q5VT25); assay: MRCKalpha (h) Millipore kinase activity assay; settings: Compound concentration 1.0 uM
[14] = target: Angiopoietin-1 receptor (Homo sapiens) (UniProt Q02763); assay: Tie2 (h) Millipore kinase activity assay; settings: Compound concentration 1.0 uM
[15] = target: Serine/threonine-protein kinase PAK 5 (Homo sapiens) (UniProt Q9P286); assay: PAK5 (h) Millipore kinase activity assay; settings: Compound concentration 1.0 uM
[16] = target: Interleukin-1 receptor-associated kinase 3 (Homo sapiens) (UniProt Q9Y616); settings: Compound concentration 1000.0 nM
[17] = target: Ephrin type-A receptor 6 (Homo sapiens) (UniProt Q9UF33); settings: Compound concentration 1000.0 nM
[18] = target: Non-receptor tyrosine-protein kinase TNK1 (Homo sapiens) (UniProt Q13470); settings: Compound concentration 1000.0 nM
[19] = target: Serine/threonine-protein kinase PAK 6 (Homo sapiens) (UniProt Q9NQU5); settings: Compound concentration 1000.0 nM
[20] = target: Cyclin-dependent kinase-like 3 (Homo sapiens) (UniProt Q8IVW4); settings: Compound concentration 1000.0 nM
[21] = target: Serine/threonine-protein kinase WNK3 (Homo sapiens) (UniProt Q9BYP7); settings: Compound concentration 1000.0 nM
[22] = target: Eukaryotic translation initiation factor 2-alpha kinase 1 (Homo sapiens) (UniProt Q9BQI3); settings: Compound concentration 1000.0 nM
[23] = target: Serine/threonine-protein kinase Nek3 (Homo sapiens) (UniProt P51956); settings: Compound concentration 1000.0 nM
[24] = target: Dual specificity mitogen-activated protein kinase kinase 7 (Homo sapiens) (UniProt O14733); settings: Compound concentration 1000.0 nM
[25] = target: Cyclin-dependent kinase-like 5 (Homo sapiens) (UniProt O76039); settings: Compound concentration 1000.0 nM
[26] = target: Serine/threonine-protein kinase B-raf (Homo sapiens) (UniProt P15056); settings: Compound concentration 1000.0 nM
[27] = target: Beta-adrenergic receptor kinase 1 (Homo sapiens) (UniProt P25098); settings: Compound concentration 1000.0 nM
[28] = target: Insulin-like growth factor 1 receptor (Homo sapiens) (UniProt P08069); settings: Compound concentration 1000.0 nM
[29] = target: Serine/threonine-protein kinase Nek2 (Homo sapiens) (UniProt P51955); settings: Compound concentration 1000.0 nM
[30] = test system: Tyrosine-protein kinase ABL1 (Homo sapiens), P00519 [M351T]; settings: Compound concentration 1000.0 nM
[31] = test system: Phosphatidylinositol 4,5-bisphosphate 3-kinase catalytic subunit alpha isoform (Homo sapiens), P42336 [Q546K]; settings: Compound concentration 1000.0 nM
[32] = target: Protein kinase C theta type (Homo sapiens) (UniProt Q04759); settings: Compound concentration 1000.0 nM
[33] = target: Protein kinase C delta type (Homo sapiens) (UniProt Q05655); settings: Compound concentration 1000.0 nM
[34] = target: Ribosomal protein S6 kinase beta-1 (Homo sapiens) (UniProt P23443); settings: Compound concentration 1000.0 nM
[35] = test system: Epidermal growth factor receptor (Homo sapiens), P00533 [L861Q]; settings: Compound concentration 1000.0 nM
[36] = target: Phosphatidylinositol 3-kinase C2 domain-containing subunit gamma (Homo sapiens) (UniProt O75747); settings: Compound concentration 1000.0 nM
[37] = target: Casein kinase I isoform delta (Homo sapiens) (UniProt P48730); settings: Compound concentration 1000.0 nM
[38] = test system: Proto-oncogene tyrosine-protein kinase receptor Ret (Homo sapiens), P07949 [V804M]; settings: Compound concentration 1000.0 nM
[39] = target: MAP kinase-interacting serine/threonine-protein kinase 2 (Homo sapiens) (UniProt Q9HBH9); settings: Compound concentration 1000.0 nM
[40] = test system: Phosphatidylinositol 4,5-bisphosphate 3-kinase catalytic subunit alpha isoform (Homo sapiens), P42336 [E545K]; settings: Compound concentration 1000.0 nM
[41] = target: Dual specificity tyrosine-phosphorylation-regulated kinase 2 (Homo sapiens) (UniProt Q92630); settings: Compound concentration 1000.0 nM
[42] = target: Receptor tyrosine-protein kinase erbB-3 (Homo sapiens) (UniProt P21860); settings: Compound concentration 1000.0 nM
[43] = target: Mast/stem cell growth factor receptor Kit (Homo sapiens) (UniProt P10721); settings: Compound concentration 1000.0 nM
[44] = test system: Receptor-type tyrosine-protein kinase FLT3 (Homo sapiens), P36888 [D835Y]; settings: Compound concentration 1000.0 nM

Chain of SRSF protein kinase 1 (Homo sapiens) (Q96SB4 whole entry): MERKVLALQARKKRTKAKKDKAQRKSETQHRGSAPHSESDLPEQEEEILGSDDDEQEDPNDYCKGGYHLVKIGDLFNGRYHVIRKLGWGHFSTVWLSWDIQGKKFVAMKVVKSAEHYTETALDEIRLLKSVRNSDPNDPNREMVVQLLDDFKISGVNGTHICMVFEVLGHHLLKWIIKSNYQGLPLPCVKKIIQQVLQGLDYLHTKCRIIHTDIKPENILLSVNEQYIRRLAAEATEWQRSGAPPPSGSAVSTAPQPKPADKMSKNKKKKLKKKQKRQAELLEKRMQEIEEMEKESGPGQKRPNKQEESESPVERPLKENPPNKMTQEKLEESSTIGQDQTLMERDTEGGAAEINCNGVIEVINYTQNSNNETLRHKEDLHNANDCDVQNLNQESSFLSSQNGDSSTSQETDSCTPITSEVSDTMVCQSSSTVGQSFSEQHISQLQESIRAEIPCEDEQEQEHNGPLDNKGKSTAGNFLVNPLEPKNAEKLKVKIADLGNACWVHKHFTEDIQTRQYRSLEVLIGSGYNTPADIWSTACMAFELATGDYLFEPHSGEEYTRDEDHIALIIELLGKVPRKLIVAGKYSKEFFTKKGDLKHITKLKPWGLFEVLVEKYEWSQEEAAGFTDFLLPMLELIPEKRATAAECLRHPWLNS
Chain of Non-receptor tyrosine-protein kinase TNK1 (Homo sapiens) (Q13470 whole entry): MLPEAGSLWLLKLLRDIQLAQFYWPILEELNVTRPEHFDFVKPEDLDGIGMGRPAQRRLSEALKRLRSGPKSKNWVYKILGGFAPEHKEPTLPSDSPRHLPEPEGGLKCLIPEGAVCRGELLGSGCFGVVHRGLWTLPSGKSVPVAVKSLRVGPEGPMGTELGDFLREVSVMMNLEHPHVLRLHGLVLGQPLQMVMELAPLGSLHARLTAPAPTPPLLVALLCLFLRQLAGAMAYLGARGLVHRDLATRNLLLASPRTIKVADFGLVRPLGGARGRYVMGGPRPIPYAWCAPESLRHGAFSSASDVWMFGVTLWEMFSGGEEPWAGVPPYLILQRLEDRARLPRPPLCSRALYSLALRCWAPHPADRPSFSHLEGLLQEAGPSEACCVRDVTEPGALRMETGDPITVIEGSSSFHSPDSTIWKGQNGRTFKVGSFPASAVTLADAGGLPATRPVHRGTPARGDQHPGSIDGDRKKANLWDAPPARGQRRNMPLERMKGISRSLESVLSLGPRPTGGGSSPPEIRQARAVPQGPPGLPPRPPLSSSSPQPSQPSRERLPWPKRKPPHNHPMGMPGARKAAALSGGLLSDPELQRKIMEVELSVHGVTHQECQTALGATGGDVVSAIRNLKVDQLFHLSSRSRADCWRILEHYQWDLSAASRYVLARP
Chain of Receptor tyrosine-protein kinase erbB-3 (Homo sapiens) (P21860 whole entry): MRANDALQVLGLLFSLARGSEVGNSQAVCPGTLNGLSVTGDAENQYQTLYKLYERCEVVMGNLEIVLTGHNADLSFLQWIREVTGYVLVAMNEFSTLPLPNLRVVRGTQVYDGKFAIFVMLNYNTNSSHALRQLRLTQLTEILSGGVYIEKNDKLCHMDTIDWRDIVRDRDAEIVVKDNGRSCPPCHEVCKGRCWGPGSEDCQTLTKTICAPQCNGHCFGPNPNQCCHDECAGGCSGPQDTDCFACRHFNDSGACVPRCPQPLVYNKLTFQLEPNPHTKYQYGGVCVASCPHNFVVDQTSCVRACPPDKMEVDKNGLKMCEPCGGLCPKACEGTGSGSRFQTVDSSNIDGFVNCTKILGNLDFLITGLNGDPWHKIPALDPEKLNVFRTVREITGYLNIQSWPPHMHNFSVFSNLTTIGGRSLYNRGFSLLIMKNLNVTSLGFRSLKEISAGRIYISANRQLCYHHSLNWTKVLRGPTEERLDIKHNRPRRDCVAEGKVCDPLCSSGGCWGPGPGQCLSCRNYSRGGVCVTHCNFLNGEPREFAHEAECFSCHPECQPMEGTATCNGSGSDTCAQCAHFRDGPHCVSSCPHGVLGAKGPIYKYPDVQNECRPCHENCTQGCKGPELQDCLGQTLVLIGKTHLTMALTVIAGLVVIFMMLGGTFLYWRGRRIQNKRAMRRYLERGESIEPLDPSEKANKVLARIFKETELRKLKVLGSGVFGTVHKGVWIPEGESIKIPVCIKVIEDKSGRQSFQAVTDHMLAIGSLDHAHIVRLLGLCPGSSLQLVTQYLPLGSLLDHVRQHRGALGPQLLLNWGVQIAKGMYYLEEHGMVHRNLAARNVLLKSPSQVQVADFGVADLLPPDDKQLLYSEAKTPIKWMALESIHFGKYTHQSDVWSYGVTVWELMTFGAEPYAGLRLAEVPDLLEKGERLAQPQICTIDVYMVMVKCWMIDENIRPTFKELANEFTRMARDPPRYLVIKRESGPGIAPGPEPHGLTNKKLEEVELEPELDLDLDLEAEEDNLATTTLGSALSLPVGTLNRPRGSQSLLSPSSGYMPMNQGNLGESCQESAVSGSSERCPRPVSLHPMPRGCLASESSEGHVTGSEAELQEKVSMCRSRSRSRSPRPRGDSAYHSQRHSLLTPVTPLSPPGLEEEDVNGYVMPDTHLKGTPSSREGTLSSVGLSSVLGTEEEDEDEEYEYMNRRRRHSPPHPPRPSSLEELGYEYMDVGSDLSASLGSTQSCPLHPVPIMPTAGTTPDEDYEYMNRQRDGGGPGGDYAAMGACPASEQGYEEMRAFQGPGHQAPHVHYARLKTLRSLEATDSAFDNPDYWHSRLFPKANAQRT
Chain of Testis-specific serine/threonine-protein kinase 2 (Homo sapiens) (Q96PF2 whole entry): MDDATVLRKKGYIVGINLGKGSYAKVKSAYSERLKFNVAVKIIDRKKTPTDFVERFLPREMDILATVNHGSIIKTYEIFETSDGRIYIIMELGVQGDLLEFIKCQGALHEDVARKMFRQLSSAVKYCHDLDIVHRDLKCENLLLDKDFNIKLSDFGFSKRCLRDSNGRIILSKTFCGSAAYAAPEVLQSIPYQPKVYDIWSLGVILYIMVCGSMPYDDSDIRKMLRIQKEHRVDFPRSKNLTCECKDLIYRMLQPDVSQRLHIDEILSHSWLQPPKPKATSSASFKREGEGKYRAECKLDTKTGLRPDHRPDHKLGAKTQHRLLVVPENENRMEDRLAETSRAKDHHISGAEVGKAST
Chain of Serine/threonine-protein kinase MRCK alpha (Homo sapiens) (Q5VT25 whole entry): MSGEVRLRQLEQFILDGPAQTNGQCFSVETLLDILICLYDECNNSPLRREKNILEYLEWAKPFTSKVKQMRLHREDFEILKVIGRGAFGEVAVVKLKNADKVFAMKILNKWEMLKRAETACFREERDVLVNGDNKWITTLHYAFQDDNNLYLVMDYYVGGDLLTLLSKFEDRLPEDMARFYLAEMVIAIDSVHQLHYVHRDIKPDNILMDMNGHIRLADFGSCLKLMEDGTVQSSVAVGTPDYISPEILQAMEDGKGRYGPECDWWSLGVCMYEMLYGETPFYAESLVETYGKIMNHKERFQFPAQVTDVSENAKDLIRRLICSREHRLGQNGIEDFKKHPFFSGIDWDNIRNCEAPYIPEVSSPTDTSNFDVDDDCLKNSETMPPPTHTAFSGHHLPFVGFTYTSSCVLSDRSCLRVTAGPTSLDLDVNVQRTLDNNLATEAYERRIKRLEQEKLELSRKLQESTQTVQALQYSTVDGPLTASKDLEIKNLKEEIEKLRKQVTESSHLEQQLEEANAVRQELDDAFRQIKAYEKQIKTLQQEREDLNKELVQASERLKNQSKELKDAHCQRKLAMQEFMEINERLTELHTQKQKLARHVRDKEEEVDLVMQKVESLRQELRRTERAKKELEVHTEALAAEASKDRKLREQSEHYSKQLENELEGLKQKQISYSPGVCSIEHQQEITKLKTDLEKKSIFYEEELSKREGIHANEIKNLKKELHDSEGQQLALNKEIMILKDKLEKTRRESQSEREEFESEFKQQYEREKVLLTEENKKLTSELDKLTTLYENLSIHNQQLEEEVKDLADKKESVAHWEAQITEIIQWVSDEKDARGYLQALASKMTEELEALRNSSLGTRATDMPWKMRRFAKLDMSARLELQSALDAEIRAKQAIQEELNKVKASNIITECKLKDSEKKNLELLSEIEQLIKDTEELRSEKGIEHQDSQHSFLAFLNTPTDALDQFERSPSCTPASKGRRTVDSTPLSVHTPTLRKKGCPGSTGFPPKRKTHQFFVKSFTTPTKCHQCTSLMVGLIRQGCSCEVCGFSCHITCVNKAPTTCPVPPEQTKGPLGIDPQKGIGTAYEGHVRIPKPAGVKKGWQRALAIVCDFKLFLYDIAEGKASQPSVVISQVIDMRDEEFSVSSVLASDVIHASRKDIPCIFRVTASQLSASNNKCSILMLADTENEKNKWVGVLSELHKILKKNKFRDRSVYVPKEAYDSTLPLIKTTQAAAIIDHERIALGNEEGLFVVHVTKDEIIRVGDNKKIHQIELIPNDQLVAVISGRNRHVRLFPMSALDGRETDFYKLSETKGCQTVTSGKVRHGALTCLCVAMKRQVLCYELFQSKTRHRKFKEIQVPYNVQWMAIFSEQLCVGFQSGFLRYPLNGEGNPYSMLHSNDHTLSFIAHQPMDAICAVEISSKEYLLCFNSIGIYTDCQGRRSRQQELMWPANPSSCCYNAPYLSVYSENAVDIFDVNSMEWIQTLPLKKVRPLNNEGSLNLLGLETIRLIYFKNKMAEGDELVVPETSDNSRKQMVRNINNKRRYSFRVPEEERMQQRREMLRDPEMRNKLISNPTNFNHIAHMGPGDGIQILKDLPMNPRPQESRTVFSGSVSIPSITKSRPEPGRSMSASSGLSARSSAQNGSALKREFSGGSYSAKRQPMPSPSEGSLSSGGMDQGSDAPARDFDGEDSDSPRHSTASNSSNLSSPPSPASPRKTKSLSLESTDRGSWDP
Chain of Casein kinase II subunit alpha' (Homo sapiens) (P19784 whole entry, looked up): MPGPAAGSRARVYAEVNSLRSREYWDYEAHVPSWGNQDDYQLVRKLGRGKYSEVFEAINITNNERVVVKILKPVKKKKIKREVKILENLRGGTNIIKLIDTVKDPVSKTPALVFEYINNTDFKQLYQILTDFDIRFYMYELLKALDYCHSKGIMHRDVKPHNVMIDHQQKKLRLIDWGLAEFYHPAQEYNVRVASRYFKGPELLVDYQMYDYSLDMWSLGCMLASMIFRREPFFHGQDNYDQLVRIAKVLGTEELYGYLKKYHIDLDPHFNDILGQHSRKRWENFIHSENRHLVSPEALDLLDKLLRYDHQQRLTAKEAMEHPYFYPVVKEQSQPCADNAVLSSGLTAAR

CC1=C(C#N)C(c2ccc3[nH]nc(C)c3c2)C(C#N)=C(C)N1 [BAY-474]
inactive: inhibition [1] -5% | inhibition [2] 11% | inhibition [3] -3% | inhibition (Rattus norvegicus) 5% | inhibition [4] -8% | inhibition [5] 4% | inhibition [6] 9% | inhibition [7] 4% | inhibition [8] 0% | inhibition [9] 3% | inhibition [10] -1% | inhibition [11] -7% | inhibition [12] -2% | inhibition [13] -10% | inhibition [14] 10% | inhibition [15] -4%

CC1=C(C#N)[C@@H](c2ccc3[nH]nc(C)c3c2)C(C#N)=C(c2ccc(Cl)cc2)N1 [BAY-827]
inactive: residual activity [16] 96.4% | residual activity [17] 100% | residual activity [18] 65% | residual activity [19] 100% | residual activity [20] 100% | residual activity [21] 100% | residual activity [22] 100% | residual activity [23] 100% | residual activity [24] 92.2% | residual activity [25] 88.5% | residual activity [26] 100% | residual activity [27] 88.1% | residual activity [28] 100% | residual activity [29] 100% | residual activity [30] 94.6% | residual activity [31] 93.7% | residual activity [32] 100% | residual activity [33] 86.3% | residual activity [34] 62.2% | residual activity [35] 100% | residual activity [36] 93.9% | residual activity [37] 100% | residual activity [38] 73.8% | residual activity [39] 90.6% | residual activity [40] 74.9% | residual activity [41] 100% | residual activity [42] 63.9% | residual activity [43] 71.2% | residual activity [44] 93.5%
